According to paper PMC8550792, “Evolution of kinase polypharmacology across HSP90 drug discovery” (Cell Chemical Biology, 2021):
Like-named read-outs stand apart in the source and are kept apart here.

Legend:
Experiment in all cases: biochemical
Format in all cases: biochemical
[1] = biological target: T1, 382 unique human kinases (Homo sapiens, UniProt P10398); conditions: compound at 10 uM, duplicate values
T1 construct: purchased Reaction Biology (HotSpot contract assay)
T1 sequence (P10398 1-606): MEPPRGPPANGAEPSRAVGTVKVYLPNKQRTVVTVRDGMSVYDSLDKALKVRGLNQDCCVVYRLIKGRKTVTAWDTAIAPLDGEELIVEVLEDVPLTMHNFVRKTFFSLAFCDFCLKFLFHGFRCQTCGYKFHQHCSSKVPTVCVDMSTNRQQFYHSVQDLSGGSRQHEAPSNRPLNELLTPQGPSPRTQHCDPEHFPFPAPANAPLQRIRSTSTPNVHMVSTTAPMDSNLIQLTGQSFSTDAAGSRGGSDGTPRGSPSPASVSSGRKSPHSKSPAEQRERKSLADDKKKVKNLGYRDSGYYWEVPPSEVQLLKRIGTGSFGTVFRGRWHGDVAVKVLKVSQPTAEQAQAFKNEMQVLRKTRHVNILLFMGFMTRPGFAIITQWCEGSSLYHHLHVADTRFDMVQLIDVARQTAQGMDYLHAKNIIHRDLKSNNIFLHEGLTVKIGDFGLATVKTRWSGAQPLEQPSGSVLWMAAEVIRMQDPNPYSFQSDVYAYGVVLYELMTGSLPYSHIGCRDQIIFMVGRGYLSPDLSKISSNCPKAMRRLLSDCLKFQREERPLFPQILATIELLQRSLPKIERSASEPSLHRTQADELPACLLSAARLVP

[2] = biological target: T2, 382 unique human kinases (Homo sapiens, UniProt Q13233); conditions: kinase MEKK1, compound 10 uM; for remaining activity at 10 µM: read-out: % Enzyme Activity (relative to DMSO controls)
T2 construct: purchased Reaction Biology (HotSpot contract assay)

[3] = biological target: T3, 382 unique human kinases (Homo sapiens, UniProt Q9BYT3); conditions: kinase STK33, compound 10 uM; for remaining activity at 10 µM: read-out: % Enzyme Activity (relative to DMSO controls)
T3 construct: purchased Reaction Biology (HotSpot contract assay)

[4] = biological target: T4, 382 unique human kinases (Homo sapiens, UniProt P00519, T315I); conditions: ABL1 (T315I), 10 uM; for remaining activity at 10 µM: read-out: % Enzyme Activity (relative to DMSO controls)
T4 construct: purchased Reaction Biology (HotSpot contract assay)

[5] = biological target: T5, 382 unique human kinases (Homo sapiens, UniProt Q96NX5); conditions: kinase CAMK1g, compound 10 uM; for remaining activity at 10 µM: read-out: % Enzyme Activity (relative to DMSO controls)
T5 construct: purchased Reaction Biology (HotSpot contract assay)

[6] = biological target: T6, 382 unique human kinases (Homo sapiens, UniProt Q7KZI7); conditions: MARK2/PAR-1Ba, 10 uM; for remaining activity at 10 µM: read-out: % Enzyme Activity (relative to DMSO controls)
T6 construct: purchased Reaction Biology (HotSpot contract assay)

[7] = biological target: T7, 382 unique human kinases (Homo sapiens, UniProt Q04771); conditions: ALK2/ACVR1, compound at 10 uM, duplicate values; for remaining activity at 10 µM: read-out: % Enzyme Activity (relative to DMSO controls)
T7 construct: purchased Reaction Biology (HotSpot contract assay)
T7 sequence (Q04771 21-509): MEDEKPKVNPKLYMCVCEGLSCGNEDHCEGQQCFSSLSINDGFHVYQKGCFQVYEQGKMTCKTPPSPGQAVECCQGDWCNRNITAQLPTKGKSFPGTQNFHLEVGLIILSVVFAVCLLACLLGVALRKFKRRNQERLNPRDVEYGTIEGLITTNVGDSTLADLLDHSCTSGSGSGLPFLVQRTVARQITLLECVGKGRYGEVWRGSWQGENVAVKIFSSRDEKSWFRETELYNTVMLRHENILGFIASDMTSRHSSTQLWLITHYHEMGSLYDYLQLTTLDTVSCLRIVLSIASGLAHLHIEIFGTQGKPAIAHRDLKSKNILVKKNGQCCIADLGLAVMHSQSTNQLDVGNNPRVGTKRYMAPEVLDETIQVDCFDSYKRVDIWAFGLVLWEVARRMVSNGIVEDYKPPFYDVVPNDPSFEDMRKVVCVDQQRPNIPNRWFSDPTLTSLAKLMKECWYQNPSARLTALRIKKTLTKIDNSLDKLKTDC

[8] = biological target: T8, 382 unique human kinases (Homo sapiens, UniProt O75676); conditions: kinase MSK2/RPS6KA4, compound 10 uM; for remaining activity at 10 µM: read-out: % Enzyme Activity (relative to DMSO controls)
T8 construct: purchased Reaction Biology (HotSpot contract assay)

[9] = biological target: T9, 382 unique human kinases (Homo sapiens, UniProt Q9P0L2); conditions: MARK1, compound at 10 uM, duplicate values; for remaining activity at 10 µM: read-out: % Enzyme Activity (relative to DMSO controls)
T9 construct: purchased Reaction Biology (HotSpot contract assay)

[10] = biological target: T10, 382 unique human kinases (Homo sapiens, UniProt Q9UM73, C1156Y); conditions: ALK (C1156Y), [ATP] 5 µM, compound 10 uM; for remaining activity at 10 µM: read-out: % Enzyme Activity (relative to DMSO controls)
T10 construct: purchased Reaction Biology (HotSpot contract assay)

[11] = biological target: T11, 382 unique human kinases (Homo sapiens, UniProt P78527); conditions: DNA-PK, 10 uM; for remaining activity at 10 µM: read-out: % Enzyme Activity (relative to DMSO controls)
T11 construct: purchased Reaction Biology (HotSpot contract assay)

[12] = biological target: T12, 382 unique human kinases (Homo sapiens, UniProt Q16620); conditions: TRKB, [ATP] 50 µM, compound 10 uM; for remaining activity at 10 µM: read-out: % Enzyme Activity (relative to DMSO controls)
T12 construct: purchased Reaction Biology (HotSpot contract assay)

[13] = biological target: T13, 382 unique human kinases (Homo sapiens, UniProt Q08345); conditions: DDR1, [ATP] 100 µM
T13 construct: purchased Reaction Biology (HotSpot contract assay)

[14] = biological target: T14, 382 unique human kinases (Homo sapiens, UniProt Q02763, Y897S); conditions: TIE2 (Y897S), 10 uM; for remaining activity at 10 µM: read-out: % Enzyme Activity (relative to DMSO controls)
T14 construct: purchased Reaction Biology (HotSpot contract assay)

[15] = biological target: T15, 382 unique human kinases (Homo sapiens, UniProt P51956); conditions: NEK3, 10 uM; for remaining activity at 10 µM: read-out: % Enzyme Activity (relative to DMSO controls)
T15 construct: purchased Reaction Biology (HotSpot contract assay)
T15 sequence (P51956 1-506): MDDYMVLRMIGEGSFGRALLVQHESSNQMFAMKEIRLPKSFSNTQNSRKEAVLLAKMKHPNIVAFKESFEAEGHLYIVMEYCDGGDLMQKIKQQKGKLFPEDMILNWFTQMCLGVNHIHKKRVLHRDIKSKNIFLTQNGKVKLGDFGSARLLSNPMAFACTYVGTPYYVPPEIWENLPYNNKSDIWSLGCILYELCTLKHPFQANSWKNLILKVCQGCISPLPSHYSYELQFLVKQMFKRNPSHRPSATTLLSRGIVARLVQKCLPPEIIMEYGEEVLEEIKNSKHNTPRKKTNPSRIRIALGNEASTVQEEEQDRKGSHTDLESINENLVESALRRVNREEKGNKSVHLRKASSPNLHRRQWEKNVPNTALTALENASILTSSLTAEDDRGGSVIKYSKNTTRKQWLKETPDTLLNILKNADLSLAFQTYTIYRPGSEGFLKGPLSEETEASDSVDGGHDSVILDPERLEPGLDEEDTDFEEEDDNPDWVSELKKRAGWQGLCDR

[16] = compound 10 uM, read-out: % Enzyme Activity (relative to DMSO controls)

T10 sequence (Q9UM73 19-1620 C1156Y): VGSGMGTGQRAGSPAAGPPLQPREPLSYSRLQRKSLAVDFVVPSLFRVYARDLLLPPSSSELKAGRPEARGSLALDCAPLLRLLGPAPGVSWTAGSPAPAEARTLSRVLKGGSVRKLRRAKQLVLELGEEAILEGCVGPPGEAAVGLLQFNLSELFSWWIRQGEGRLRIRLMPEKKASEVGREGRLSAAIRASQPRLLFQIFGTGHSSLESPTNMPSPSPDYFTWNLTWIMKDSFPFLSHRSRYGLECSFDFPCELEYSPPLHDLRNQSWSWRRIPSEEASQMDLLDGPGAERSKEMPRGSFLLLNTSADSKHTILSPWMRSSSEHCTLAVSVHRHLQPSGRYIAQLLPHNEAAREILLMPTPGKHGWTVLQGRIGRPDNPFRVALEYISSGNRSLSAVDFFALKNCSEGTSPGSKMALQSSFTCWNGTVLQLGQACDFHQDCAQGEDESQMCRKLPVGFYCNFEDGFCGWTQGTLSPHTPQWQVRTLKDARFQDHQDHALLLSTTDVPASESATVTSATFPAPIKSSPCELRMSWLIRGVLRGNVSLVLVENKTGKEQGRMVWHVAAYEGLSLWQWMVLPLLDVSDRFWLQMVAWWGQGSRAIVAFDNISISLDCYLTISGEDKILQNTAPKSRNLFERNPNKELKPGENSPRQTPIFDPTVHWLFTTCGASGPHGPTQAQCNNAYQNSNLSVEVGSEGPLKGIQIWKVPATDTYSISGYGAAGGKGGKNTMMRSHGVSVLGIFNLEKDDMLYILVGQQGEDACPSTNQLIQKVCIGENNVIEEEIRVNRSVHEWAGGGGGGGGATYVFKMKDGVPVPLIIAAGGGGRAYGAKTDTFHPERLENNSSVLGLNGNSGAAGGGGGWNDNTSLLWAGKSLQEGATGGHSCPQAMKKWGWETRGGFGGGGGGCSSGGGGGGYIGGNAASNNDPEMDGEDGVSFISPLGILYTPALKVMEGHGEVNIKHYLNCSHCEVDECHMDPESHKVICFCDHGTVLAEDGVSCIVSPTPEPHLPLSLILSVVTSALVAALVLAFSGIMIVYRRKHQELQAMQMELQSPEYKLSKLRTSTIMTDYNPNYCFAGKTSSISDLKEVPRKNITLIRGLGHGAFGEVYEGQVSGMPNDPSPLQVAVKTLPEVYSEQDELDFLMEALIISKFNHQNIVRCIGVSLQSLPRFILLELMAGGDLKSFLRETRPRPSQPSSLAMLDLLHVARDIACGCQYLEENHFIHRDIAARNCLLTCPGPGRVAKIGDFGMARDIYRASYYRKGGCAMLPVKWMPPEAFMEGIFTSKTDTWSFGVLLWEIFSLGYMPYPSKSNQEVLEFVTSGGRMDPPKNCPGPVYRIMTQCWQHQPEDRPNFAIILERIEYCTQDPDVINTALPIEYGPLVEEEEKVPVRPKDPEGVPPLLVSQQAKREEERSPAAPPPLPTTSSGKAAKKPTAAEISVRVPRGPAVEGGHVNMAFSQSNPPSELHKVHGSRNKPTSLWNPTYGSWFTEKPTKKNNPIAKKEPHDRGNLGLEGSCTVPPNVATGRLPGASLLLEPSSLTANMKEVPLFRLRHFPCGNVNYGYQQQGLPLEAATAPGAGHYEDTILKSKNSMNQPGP
T13 sequence (Q08345 19-913): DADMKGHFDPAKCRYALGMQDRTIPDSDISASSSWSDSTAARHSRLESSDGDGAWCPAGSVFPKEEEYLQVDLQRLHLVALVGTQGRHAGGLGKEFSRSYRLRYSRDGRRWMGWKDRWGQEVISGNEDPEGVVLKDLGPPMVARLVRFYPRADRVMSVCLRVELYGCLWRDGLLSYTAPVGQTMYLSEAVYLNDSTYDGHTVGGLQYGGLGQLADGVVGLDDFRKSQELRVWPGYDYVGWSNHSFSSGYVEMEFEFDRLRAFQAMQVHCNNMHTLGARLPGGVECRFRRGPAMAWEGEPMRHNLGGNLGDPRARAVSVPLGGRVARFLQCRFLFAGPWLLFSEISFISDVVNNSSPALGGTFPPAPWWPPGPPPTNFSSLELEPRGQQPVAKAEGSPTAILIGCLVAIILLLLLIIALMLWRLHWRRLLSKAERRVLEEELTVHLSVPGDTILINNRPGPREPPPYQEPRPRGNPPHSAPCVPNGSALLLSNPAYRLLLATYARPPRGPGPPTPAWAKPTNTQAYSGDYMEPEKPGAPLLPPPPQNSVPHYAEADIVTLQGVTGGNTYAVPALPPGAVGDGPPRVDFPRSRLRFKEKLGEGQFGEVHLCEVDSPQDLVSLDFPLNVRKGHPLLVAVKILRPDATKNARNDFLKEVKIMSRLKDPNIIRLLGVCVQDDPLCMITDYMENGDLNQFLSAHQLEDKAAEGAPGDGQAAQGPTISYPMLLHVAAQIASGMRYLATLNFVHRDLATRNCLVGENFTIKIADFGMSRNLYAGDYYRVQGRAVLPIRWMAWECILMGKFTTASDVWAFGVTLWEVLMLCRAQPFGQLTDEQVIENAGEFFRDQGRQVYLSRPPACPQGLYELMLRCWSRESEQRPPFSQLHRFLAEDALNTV
T12 sequence (Q16620 32-822): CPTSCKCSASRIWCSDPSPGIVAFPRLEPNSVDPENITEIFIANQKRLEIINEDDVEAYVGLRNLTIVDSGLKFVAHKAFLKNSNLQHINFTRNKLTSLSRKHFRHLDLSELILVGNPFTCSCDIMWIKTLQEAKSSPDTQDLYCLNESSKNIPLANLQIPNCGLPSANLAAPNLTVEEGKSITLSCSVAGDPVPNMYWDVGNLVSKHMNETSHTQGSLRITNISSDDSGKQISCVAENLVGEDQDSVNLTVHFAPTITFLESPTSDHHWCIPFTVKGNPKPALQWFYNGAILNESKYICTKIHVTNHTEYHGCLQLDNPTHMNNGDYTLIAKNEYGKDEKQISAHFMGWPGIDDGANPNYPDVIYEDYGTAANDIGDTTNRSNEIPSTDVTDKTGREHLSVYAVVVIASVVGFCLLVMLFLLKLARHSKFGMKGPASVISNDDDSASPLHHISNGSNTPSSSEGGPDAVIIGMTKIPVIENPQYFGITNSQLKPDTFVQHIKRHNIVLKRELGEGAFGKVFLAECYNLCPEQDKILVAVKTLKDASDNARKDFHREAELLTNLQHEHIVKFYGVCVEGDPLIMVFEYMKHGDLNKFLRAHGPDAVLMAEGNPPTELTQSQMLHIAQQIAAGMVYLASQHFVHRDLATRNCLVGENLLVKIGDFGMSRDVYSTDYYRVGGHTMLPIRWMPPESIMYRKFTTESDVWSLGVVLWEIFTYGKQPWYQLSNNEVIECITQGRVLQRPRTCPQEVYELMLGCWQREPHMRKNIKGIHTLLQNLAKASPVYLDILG
T6 sequence (Q7KZI7 whole entry): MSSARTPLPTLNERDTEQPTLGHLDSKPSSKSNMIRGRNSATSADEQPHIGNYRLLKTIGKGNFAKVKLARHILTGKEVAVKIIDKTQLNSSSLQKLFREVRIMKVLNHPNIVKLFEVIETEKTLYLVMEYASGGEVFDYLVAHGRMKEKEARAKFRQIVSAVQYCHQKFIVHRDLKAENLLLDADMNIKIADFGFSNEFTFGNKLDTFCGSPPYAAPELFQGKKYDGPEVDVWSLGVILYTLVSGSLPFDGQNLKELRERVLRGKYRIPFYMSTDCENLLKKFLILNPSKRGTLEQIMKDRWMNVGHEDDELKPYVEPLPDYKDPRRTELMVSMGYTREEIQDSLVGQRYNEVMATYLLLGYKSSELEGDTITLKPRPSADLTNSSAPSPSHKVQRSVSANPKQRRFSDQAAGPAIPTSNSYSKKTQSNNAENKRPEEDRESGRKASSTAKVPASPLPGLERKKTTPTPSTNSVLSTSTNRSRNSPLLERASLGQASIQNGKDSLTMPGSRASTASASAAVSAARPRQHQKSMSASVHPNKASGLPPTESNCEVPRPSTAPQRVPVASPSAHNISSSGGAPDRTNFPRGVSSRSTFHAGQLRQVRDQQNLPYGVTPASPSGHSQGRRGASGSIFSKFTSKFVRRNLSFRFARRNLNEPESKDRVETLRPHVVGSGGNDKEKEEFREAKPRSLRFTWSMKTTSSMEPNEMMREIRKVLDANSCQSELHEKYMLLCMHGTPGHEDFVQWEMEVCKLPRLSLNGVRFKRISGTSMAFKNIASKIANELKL
T9 sequence (Q9P0L2 whole entry): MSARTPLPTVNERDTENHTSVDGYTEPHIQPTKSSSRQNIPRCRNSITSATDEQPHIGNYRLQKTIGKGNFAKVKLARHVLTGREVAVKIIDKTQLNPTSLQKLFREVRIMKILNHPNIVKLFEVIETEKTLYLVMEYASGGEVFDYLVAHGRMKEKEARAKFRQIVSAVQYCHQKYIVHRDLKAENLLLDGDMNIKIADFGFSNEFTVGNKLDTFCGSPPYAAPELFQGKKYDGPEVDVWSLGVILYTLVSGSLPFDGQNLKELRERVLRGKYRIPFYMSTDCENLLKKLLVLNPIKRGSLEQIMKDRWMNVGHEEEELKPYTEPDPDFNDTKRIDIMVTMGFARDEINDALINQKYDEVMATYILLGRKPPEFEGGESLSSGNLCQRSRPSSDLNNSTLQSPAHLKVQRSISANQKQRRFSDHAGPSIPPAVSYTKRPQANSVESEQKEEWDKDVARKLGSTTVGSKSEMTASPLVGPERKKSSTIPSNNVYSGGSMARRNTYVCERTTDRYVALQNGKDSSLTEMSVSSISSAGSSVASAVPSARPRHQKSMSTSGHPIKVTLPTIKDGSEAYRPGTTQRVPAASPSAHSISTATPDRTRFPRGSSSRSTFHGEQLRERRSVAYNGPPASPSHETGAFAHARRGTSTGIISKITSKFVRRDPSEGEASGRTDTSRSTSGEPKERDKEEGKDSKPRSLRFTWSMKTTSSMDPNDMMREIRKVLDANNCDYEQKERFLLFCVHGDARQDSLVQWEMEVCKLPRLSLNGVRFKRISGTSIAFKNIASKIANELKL

| SMILES | remaining activity at 10 µM [2] [%] | remaining activity at 10 µM [3] [%] | remaining activity at 10 µM [4] [%] | remaining activity at 10 µM [5] [%] | remaining activity at 10 µM [6] [%] | remaining activity at 10 µM [7] [%] | remaining activity at 10 µM [8] [%] | remaining activity at 10 µM [9] [%] | remaining activity at 10 µM [10] [%] | remaining activity at 10 µM [11] [%] | remaining activity at 10 µM [12] [%] | remaining activity at 10 µM [13, 16] [%] | remaining activity at 10 µM [14] [%] | remaining activity at 10 µM [15] [%] | other results |
| --- | --- | --- | --- | --- | --- | --- | --- | --- | --- | --- | --- | --- | --- | --- | --- |
| CC(C)c1cc(-c2n[nH]c(=O)n2-c2ccc3c(ccn3C)c2)c(O)cc1O [Ganetespib (STA9090)] | 98.3 | 81.4 | 72.8 | 86.8 | 75.7 | 125 | 87.3 | 112 |  |  |  |  |  |  | remaining activity at 10 µM ([1]; read-out: % Enzyme Activity (relative to DMSO controls), ARAF): 158% |
| CCNC(=O)c1noc(-c2cc(C(C)C)c(O)cc2O)c1-c1ccc(CN2CCOCC2)cc1 [Luminespib] |  |  |  |  |  |  |  |  | 93.3 | 91.6 | 98.1 | 85.9 | 117 | 91.5 | % Enzyme Activity (relative to DMSO controls) [10]: 91.42%; % Enzyme Activity (relative to DMSO controls) [11]: 91.21%; % Enzyme Activity (relative to DMSO controls) [12]: 97.46%; % Enzyme Activity (relative to DMSO controls) ([13]; compound 10 uM): 84.86%; % Enzyme Activity (relative to DMSO controls) [14]: 116.81%; % Enzyme Activity (relative to DMSO controls) [15]: 90.60% |
| CCNC(=O)c1noc(-c2cc(C(C)C)c(O)cc2O)c1-c1ccc(CN2CCOCC2)cc1 [Luminespib (AUY-922)] | 85.5 | 104 | 114 | 97.8 | 104 | 120 | 94.4 | 110 |  |  |  |  |  |  | % Enzyme Activity (relative to DMSO controls) ([1]; ARAF): 107.23%; remaining activity at 10 µM ([1]; ARAF, read-out: % Enzyme Activity (relative to DMSO controls)): 107%; % Enzyme Activity (relative to DMSO controls) [2]: 83.59%; % Enzyme Activity (relative to DMSO controls) [3]: 103.02%; % Enzyme Activity (relative to DMSO controls) [4]: 112.00%; % Enzyme Activity (relative to DMSO controls) [5]: 93.84%; % Enzyme Activity (relative to DMSO controls) [6]: 102.26%; % Enzyme Activity (relative to DMSO controls) [7]: 117.92%; % Enzyme Activity (relative to DMSO controls) [8]: 94.10%; % Enzyme Activity (relative to DMSO controls) [9]: 104.63% |
| CC(C)c1cc(-c2n[nH]c(=O)n2-c2ccc3c(ccn3C)c2)c(O)cc1O [Ganetespib] |  |  |  |  |  |  |  |  | 20 | 97.8 | 21.5 | 4.12 | 98.7 | 117 | remaining activity at 1 µM ([13]; compound 1 uM, read-out: % Enzyme Activity (relative to DMSO controls)): 8.59% |
